System: 354836-022-R-J1-PDC multicell spheroid viability
Test: Anticancer human tumor 354836-022-R-J1-PDC patient-derived head and neck squamous cell carcinoma cell line growth inhibition [PI3K]
Settings: for IC50: curve of first compound; for viability, T/C: stronger effect = lower value
Outline: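 Combination activity was assessed by viability in multicellular tumor spheroids carrying HUVEC and MSC components. Agents were tested with PI3K inhibitors from a Cmax-based top dose (or 10 microM) downward in half-log increments.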
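Further: spheroids exposed to agents for seven days before the viability read.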

CNC(=O)c1ccc(N2C(=S)N(c3ccc(C#N)c(C(F)(F)F)c3)C(=O)C2(C)C)cc1F + COc1c(OCCCN2CCOCC2)ccc2c3n(c(=NC(=O)c4cnc(N)nc4)nc12)CCN3
IC50 (second compound 0.00316 µM): > 10 µM | IC50 (second compound 0.01 µM): > 10 µM | IC50 (second compound 0.0316 µM): > 10 µM | IC50 (second compound 0.1 µM): < 0.0316 µM | IC50 (second compound 0.316 µM): < 0.0316 µM | IC50 (second compound 1 µM): < 0.0316 µM | viability, T/C (second compound 0.00316 µM, first compound 0.0316 µM): 93.6% | viability, T/C (second compound 0.00316 µM, first compound 0.1 µM): 102% | viability, T/C (second compound 0.00316 µM, first compound 0.316 µM): 101% | viability, T/C (second compound 0.00316 µM, first compound 1 µM): 107% | viability, T/C (second compound 0.00316 µM, first compound 3.16 µM): 124% | viability, T/C (second compound 0.00316 µM, first compound 10 µM): 93.2% | viability, T/C (second compound 0.01 µM, first compound 0.0316 µM): 97.3% | viability, T/C (second compound 0.01 µM, first compound 0.1 µM): 92.8% | viability, T/C (second compound 0.01 µM, first compound 0.316 µM): 92.7% | viability, T/C (second compound 0.01 µM, first compound 1 µM): 97.7% | viability, T/C (second compound 0.01 µM, first compound 3.16 µM): 102% | viability, T/C (second compound 0.01 µM, first compound 10 µM): 108% | viability, T/C (second compound 0.0316 µM, first compound 0.0316 µM): 78.1% | viability, T/C (second compound 0.0316 µM, first compound 0.1 µM): 80% | viability, T/C (second compound 0.0316 µM, first compound 0.316 µM): 81.8% | viability, T/C (second compound 0.0316 µM, first compound 1 µM): 83.7% | viability, T/C (second compound 0.0316 µM, first compound 3.16 µM): 80.4% | viability, T/C (second compound 0.0316 µM, first compound 10 µM): 77% | viability, T/C (second compound 0.1 µM, first compound 0.0316 µM): 47.8% | viability, T/C (second compound 0.1 µM, first compound 0.1 µM): 50.8% | viability, T/C (second compound 0.1 µM, first compound 0.316 µM): 57.1% | viability, T/C (second compound 0.1 µM, first compound 1 µM): 49.2% | viability, T/C (second compound 0.1 µM, first compound 3.16 µM): 58.4% | viability, T/C (second compound 0.1 µM, first compound 10 µM): 49.9% | viability, T/C (second compound 0.316 µM, first compound 0.0316 µM): 16.4% | viability, T/C (second compound 0.316 µM, first compound 0.1 µM): 18.1% | viability, T/C (second compound 0.316 µM, first compound 0.316 µM): 13.4% | viability, T/C (second compound 0.316 µM, first compound 1 µM): 10.8% | viability, T/C (second compound 0.316 µM, first compound 3.16 µM): 14.5% | viability, T/C (second compound 0.316 µM, first compound 10 µM): 12.6% | viability, T/C (second compound 1 µM, first compound 0.0316 µM): 1.3% | viability, T/C (second compound 1 µM, first compound 0.1 µM): 1.27% | viability, T/C (second compound 1 µM, first compound 0.316 µM): 1.65% | viability, T/C (second compound 1 µM, first compound 1 µM): 1.63% | viability, T/C (second compound 1 µM, first compound 3.16 µM): 1.96% | viability, T/C (second compound 1 µM, first compound 10 µM): 0.99%

Cn1cnc2c(F)c(Nc3ccc(Br)cc3Cl)c(C(=O)NOCCO)cc21 + COc1c(OCCCN2CCOCC2)ccc2c3n(c(=NC(=O)c4cnc(N)nc4)nc12)CCN3
IC50 (second compound 0.00316 µM): > 3 µM | IC50 (second compound 0.01 µM): > 3 µM | IC50 (second compound 0.0316 µM): 1.86 µM | IC50 (second compound 0.1 µM): < 0.00949 µM | IC50 (second compound 0.316 µM): < 0.00949 µM | IC50 (second compound 1 µM): < 0.00949 µM | viability, T/C (second compound 0.00316 µM, first compound 0.00949 µM): 107% | viability, T/C (second compound 0.00316 µM, first compound 0.03 µM): 86.2% | viability, T/C (second compound 0.00316 µM, first compound 0.0949 µM): 89.4% | viability, T/C (second compound 0.00316 µM, first compound 0.3 µM): 96.6% | viability, T/C (second compound 0.00316 µM, first compound 0.949 µM): 75.5% | viability, T/C (second compound 0.00316 µM, first compound 3 µM): 58% | viability, T/C (second compound 0.01 µM, first compound 0.00949 µM): 83.3% | viability, T/C (second compound 0.01 µM, first compound 0.03 µM): 84.6% | viability, T/C (second compound 0.01 µM, first compound 0.0949 µM): 78.3% | viability, T/C (second compound 0.01 µM, first compound 0.3 µM): 89.2% | viability, T/C (second compound 0.01 µM, first compound 0.949 µM): 75.4% | viability, T/C (second compound 0.01 µM, first compound 3 µM): 60.7% | viability, T/C (second compound 0.0316 µM, first compound 0.00949 µM): 81.2% | viability, T/C (second compound 0.0316 µM, first compound 0.03 µM): 80% | viability, T/C (second compound 0.0316 µM, first compound 0.0949 µM): 67.8% | viability, T/C (second compound 0.0316 µM, first compound 0.3 µM): 66.9% | viability, T/C (second compound 0.0316 µM, first compound 0.949 µM): 66.3% | viability, T/C (second compound 0.0316 µM, first compound 3 µM): 41% | viability, T/C (second compound 0.1 µM, first compound 0.00949 µM): 43.8% | viability, T/C (second compound 0.1 µM, first compound 0.03 µM): 48.6% | viability, T/C (second compound 0.1 µM, first compound 0.0949 µM): 38.3% | viability, T/C (second compound 0.1 µM, first compound 0.3 µM): 41.9% | viability, T/C (second compound 0.1 µM, first compound 0.949 µM): 31.2% | viability, T/C (second compound 0.1 µM, first compound 3 µM): 15.2% | viability, T/C (second compound 0.316 µM, first compound 0.00949 µM): 12.7% | viability, T/C (second compound 0.316 µM, first compound 0.03 µM): 9.02% | viability, T/C (second compound 0.316 µM, first compound 0.0949 µM): 11% | viability, T/C (second compound 0.316 µM, first compound 0.3 µM): 9.87% | viability, T/C (second compound 0.316 µM, first compound 0.949 µM): 5.57% | viability, T/C (second compound 0.316 µM, first compound 3 µM): 1.48% | viability, T/C (second compound 1 µM, first compound 0.00949 µM): 1.58% | viability, T/C (second compound 1 µM, first compound 0.03 µM): 1.2% | viability, T/C (second compound 1 µM, first compound 0.0949 µM): 1.03% | viability, T/C (second compound 1 µM, first compound 0.3 µM): 1.25% | viability, T/C (second compound 1 µM, first compound 0.949 µM): 0.64% | viability, T/C (second compound 1 µM, first compound 3 µM): 0.57%

Reference: PubChem BioAssay AID1963981 (Molecular Pharmacology Branch, DTP, NCI, 2024)
